Laboratory results reported in US10092566B2, “Composition for controlling a gut immunity and use thereof” (SEOUL NATIONAL UNIVERSITY R&DB FOUNDATION, priority 2013, dated 2018).

Tested on: DUOX
Test: In vivo ROS detection in gut epithelia (HOCl-specific R19S staining, ratio of ROS-positive guts)
Parameters: species or system Drosophila
Description: R19S, a recently developed HOCl-specific rhodamine-based dye, was used in this experiment (Chen et al., Chem Commun (Camb) 47, pp. 4373-4375, 2011). R19S was purchased from Futurechem (Seoul, South Korea). […]
Furthermore, to measure the basal level of ROS in germ-free animals, Drosophila monoassociated with each bacterium (C. intestini, A. pomorum, L. plantarum, G. morbifer, G. morbifer-carA::Tn5, L. brevis, or L. brevisΔcarA) were experimented with as disclosed above. A 5% sucrose solution containing 10 μM of R19S was orally administered to the monoassociated Drosophila (13 days old) for 90 minutes.
Following the R19S ingestion, the midguts were dissected and fixed with 4% formaldehyde. The level of HOCl (ROS level) was visualized by LSM700 confocal microscopy (Carl Zeiss).
For all of the experiments, R19S-positive guts in each animal group (n=approx. 20) were measured by each independent experiment, and data was indicated by at least three repeated and independent experiments. The number of R19S-positive guts in regard to the total numbers of gut samples was indicated as the ratio of ROS-positive guts.

Compound | DUOX-dependent ROS after coingestion of uracil with N-acetylcysteine (uracil 20 nM, 1.5 hours, plus N-acetylcysteine) | ROS-inducing ability / DUOX activation (nucleobases and pyrimidine analogs, 20 nM each, ingestion for 15 minutes)
CC(=O)N[C@@H](CS)C(=O)O [N-acetylcysteine, reference compound] | could not be detected | –
O=c1[nH]cc(F)c(=O)[nH]1 [5-fluorouracil, reference compound] | – | only uracil is capable of activating DUOX
